Results published in US11737462B2, “Methods for modulating plant response to environmentally-induced stress” (Howard University, priority 2012, dated 2023).

Experiments:
[1] = tested on: pepper plants; experiment: salt-induced stress in pepper plants; type: in vivo; conditions: 60 μM compound plus 250 mM NaCl, 48 hours, about 24° C.
Protocol: In the examples described herein, the test compounds (e.g., SD-29 or analogs thereof) were dissolved in dimethyl sulfoxide (DMSO) to provide a 20 mM concentration. Micromolar concentrations were then prepared as needed by addition to the water incubation media. Unless stated otherwise, the experimental plants were incubated with the roots immersed in the water containing the compound. The control plants received only DMSO in the same amount as that of the compound.
Salt-induced stress was evaluated with pepper plants at room temperature (about 24° C.) for 48 hours. All plants received sufficient incubation media to last the seven days. Plant A received 60 μM SD-29 plus 250 mM NaCl and plant B received 250 mM NaCl in the incubation medium with DMSO.

[2] = tested on: tomato plants; experiment: salt-induced stress in tomato plants; type: in vivo; conditions: 60 μM compound plus 250 mM NaCl, five days, about 24° C.
Protocol: (§1) In the examples described herein, the test compounds (e.g., SD-29 or analogs thereof) were dissolved in dimethyl sulfoxide (DMSO) to provide a 20 mM concentration. Micromolar concentrations were then prepared as needed by addition to the water incubation media. Unless stated otherwise, the experimental plants were incubated with the roots immersed in the water containing the compound. The control plants received only DMSO in the same amount as that of the compound. Salt-induced stress was evaluated with tomato plants at room temperature (about 24° C.) for five days. The plants received sufficient incubation media to last through the five day experiment. Plant A received 60 μM SD-29 plus 250 mM NaCl and plant B received 250 mM NaCl (plus DMSO in the same volume as the volume of SD-29 received by plant A) in the incubation medium.

[3] = tested on: salt glands (trichome) on Arabidopsis leaves; experiment: sodium green dye staining of Arabidopsis leaves (sodium uptake); type: in vivo, Arabidopsis thaliana; conditions: 1 week old plants, 100 mM salt, 60 μM compound, three hours
Protocol: 1 week old Arabidopsis plants were treated with and without 100 mM salt, as well as with and without the presence of 60 μM SD-29, in incubation medium for three hours. The leaves were stained with sodium green dye (5 μM) according to the manufacturer's protocol (Invitrogen, Calif.) and analyzed by fluorescent microscopy to determine if the plants take up sodium from the incubation medium. The dye fluoresces in the presence of sodium ion.

[4] = target: T1, Arabidopsis RACK1A (Arabidopsis thaliana, UniProt O24456); experiment: western blot of RACK1A tyrosine phosphorylation in Arabidopsis leaves under heat stress; type: in vivo
T1 construct: from tissue; host or cells: Arabidopsis plant leaves
Protocol: In the examples described herein, the test compounds (e.g., SD-29 or analogs thereof) were dissolved in dimethyl sulfoxide (DMSO) to provide a 20 mM concentration. Micromolar concentrations were then prepared as needed by addition to the water incubation media. Unless stated otherwise, the experimental plants were incubated with the roots immersed in the water containing the compound. The control plants received only DMSO in the same amount as that of the compound. In the second group (FIG. 3), Arabidopsis plants were held at 42° C. for six hours and compared to control plants held at about 22° C. The Arabidopsis plant in the experimental group was treated with 60 μM SD-29 in water. A control plant received water and DMSO. Lysates were then prepared from the leaves and western blots were performed using immobilized mouse anti-pTRY and Arabidopsis-anti RAC[…]. […] A similar experiment was carried out using analog SD-29-9 and SD-29 at 42° C. for three hours. […] A western blot was then performed using an antibody that was raised targeting phosphorylated […] residue of RAC[…].

[5] = tested on: bean plants; experiment: salt-induced stress in bean plants; type: in vivo; conditions: 60 μM compound plus 250 mM NaCl, 96 hours, about 24° C.
Protocol: as §1, with “bean” for “tomato”, “96 hours. All” for “five days. The”, “last” for “last through”, “seven days.” for “five day experiment.”, “NaCl” for “NaCl (plus DMSO in the same volume as the volume of SD-29 received by plant A)”

[6] = tested on: rice leaves; experiment: uptake of salts from the incubation medium by rice leaves; type: in vivo; conditions: 60 μM compound, 250 mM NaCl, vs non-treated leaves
Protocol: The effect of SD-29 on modulating salt-induced stress was evaluated with rice detached leaves at room temperature (about 24° C.) for seven days in a water incubation medium. All plants received sufficient incubation medium to last the seven days. Plant A (left most) received 250 mM NaCl plus DMSO, Plant B (right of Plant A) received 60 μM SD-29 and 250 mM NaCl, and plant D received 60 μM SD-29 in the incubation medium. The incubation medium of Plant C was untreated. To examine whether the salt stress resistance comes from the differential uptake of sodium ions due to the drug treatment, the uptake of salts from the incubation medium was assayed (leaves from FIG. 5). […] The base point is indicated with 250 mM of salt line.

[7] = tested on: Cu/Zn SOD; experiment: native gel analysis of superoxide dismutase activity in pepper leaf lysate; type: in vivo; conditions: 60 μM compound plus 250 mM NaCl, vs DMSO treated plants
Protocol: Native gel analysis was performed on a lysate prepared from the pepper plant leaves in FIG. 8. The gel is stained for detecting enzymatic activity of different isoforms of superoxide dismutase—key enzymes that detoxify the reactive oxygen species which usually develop during the stress conditions. […] Therefore, it appears that SD-29 may help detoxify the cellular reactive oxygen species generated during the salt stress conditions.

[8] = tested on: chloroplastic Cu—Zn SOD; experiment: native gel assay of SOD activity in rice leaves; type: in vivo; conditions: set up as FIG. 5: 60 μM compound, 250 mM NaCl; wild-type and RACK1 over-expressing (OX) rice
Protocol: Native gel analysis was performed on a lysate prepared from the pepper plant leaves in FIG. 8. The gel is stained for detecting enzymatic activity of different isoforms of superoxide dismutase—key enzymes that detoxify the reactive oxygen species which usually develop during the stress conditions. […] Therefore, it appears that SD-29 may help detoxify the cellular reactive oxygen species generated during the salt stress conditions. The wild-type rice plants were compared to a rice plant over-expressing rice RACK1 protein (referred to as “OX”). The OX plants were treated as described in this example for the wild-type rice plant. Native gel assay was performed as described for FIG. 8 and the experimental set up was exactly the same as described for FIG. 5.

T1 sequence (O24456 whole entry): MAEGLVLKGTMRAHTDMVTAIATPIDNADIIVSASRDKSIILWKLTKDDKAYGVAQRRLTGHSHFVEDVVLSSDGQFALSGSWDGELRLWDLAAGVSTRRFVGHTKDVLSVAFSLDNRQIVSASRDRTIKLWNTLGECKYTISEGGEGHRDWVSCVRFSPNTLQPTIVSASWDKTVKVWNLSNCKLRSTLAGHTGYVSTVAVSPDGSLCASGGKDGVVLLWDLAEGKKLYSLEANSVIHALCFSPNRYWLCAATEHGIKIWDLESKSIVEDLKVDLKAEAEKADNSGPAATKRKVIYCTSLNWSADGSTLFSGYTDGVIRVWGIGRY

**Q.** What does the source list for `Nn1c(S)nnc1-c1ccc(F)cc1` [SD-29]?
**A.** pepper plant condition in high salt [1]: thrived in the high salt conditions (with no chlorosis); tomato plant condition in high salt [2]: thrived (did not wilt) in the high salt conditions; salt uptake through the salt glands (sodium green fluorescence) [3]: prevents salt uptake through the salt glands (trichome); Arabidopsis RACK1A tyrosine phosphorylation during heat stress ([4]; 60 μM, 42° C. for six hours, western blot of leaf lysates): prevents Arabidopsis RACK1A tyrosine phosphorylation; Arabidopsis RACK1A tyrosine phosphorylation at increased temperature ([4]; 42° C. for three hours, western blot, antibody to phosphorylated Y248): effective to prevent Arabidopsis RACK1A tyrosine phosphorylation at increased temperature; bean plant condition in high salt [5]: thrived (did not wilt) in the high salt conditions; sodium ions remaining in the incubation medium [6]: more sodium ions remained in the incubation medium; cytoplasmic and chloroplastic Cu/Zn SOD enzyme activities in pepper leaves [7]: caused upregulation of both the cytoplasmic (lower band) and chloroplastic (upper band) Cu/Zn SOD enzyme activities; chloroplastic Cu—Zn SOD activity in rice leaves [8]: upregulates chloroplastic Cu—Zn SOD activity
